One series has as its target T1, Cytochrome P450 1A2 (Homo sapiens, UniProt P05177).
T1 sequence (P05177 whole entry): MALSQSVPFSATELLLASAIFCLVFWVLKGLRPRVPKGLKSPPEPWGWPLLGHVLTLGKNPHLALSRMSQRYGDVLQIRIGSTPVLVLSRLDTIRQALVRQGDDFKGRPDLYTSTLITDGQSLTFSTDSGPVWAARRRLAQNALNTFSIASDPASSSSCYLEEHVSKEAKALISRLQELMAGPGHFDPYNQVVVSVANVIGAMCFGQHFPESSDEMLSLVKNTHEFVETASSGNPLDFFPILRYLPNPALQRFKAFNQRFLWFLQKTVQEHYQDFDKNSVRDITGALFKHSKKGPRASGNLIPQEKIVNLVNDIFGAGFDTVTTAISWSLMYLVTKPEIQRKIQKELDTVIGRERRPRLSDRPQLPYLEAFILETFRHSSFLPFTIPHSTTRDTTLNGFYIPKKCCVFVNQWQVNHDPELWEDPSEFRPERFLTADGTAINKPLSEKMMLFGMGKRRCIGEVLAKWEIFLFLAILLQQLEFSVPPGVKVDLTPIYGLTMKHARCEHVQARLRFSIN

Series [1] relates to Rattus norvegicus. Put plainly: Plasma concentration in Wistar rat at 25 mg/kg, po after 0.5 to 8 hrs. The class given is ADME, organism-based. Also noted: dose 25 mg/kg, route oral. The settings on record: in vivo.
Series [2] can be described thus: Tmax in Wistar rat at 25 mg/kg, po. The class given is ADME, organism-based. Also noted: dose 25 mg/kg, route oral. The settings on record: in vivo.
A further series has as its target Cytochrome P450 2D6 (Homo sapiens, UniProt P10635). Put plainly: Inhibition of human recombinant CYP2D6 expressed in baculovirus-infected insect microsomes. The class given is ADME, Microsome.
The nature of series [3]: Terminal half life in Wistar rat at 25 mg/kg, po. The class given is ADME, organism-based. Also noted: dose 25 mg/kg, route oral. The settings on record: in vivo, read-out: beta t1/2 (converted).
Series [4] has as its target T2, Cytochrome P450 11B2, mitochondrial (Homo sapiens, UniProt P19099).
T2 sequence (P19099 whole entry): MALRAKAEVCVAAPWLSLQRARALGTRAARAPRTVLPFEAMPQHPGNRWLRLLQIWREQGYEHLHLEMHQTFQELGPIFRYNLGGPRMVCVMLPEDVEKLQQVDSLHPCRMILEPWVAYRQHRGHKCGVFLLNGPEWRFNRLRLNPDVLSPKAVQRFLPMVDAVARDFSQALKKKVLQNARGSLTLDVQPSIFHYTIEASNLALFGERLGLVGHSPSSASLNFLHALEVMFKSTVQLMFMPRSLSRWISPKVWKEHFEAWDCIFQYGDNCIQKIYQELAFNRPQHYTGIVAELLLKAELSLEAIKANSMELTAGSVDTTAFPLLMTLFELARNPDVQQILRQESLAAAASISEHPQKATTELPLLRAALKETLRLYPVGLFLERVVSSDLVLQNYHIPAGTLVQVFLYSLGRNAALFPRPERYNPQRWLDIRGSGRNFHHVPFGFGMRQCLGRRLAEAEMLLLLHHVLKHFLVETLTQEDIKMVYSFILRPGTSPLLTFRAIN
Put plainly: Inhibition of human CYP11B2 expressed in hamster V79 MZh cells at 500 nM. The series is classed as cell-based. The settings on record: V79MZh.

For another series, the species on record is Homo sapiens. Briefly: Selectivity ratio, IC50 for human CYP11B1 to IC50 for human CYP11B2.
Series [5] is described as follows: AUC (0 to infinity) in Wistar rat at 25 mg/kg, po. Further details: time infinity, dose 25 mg/kg, route oral. The class given is ADME, organism-based. The settings on record: plasma.
The target in another series is Cytochrome P450 3A4 (Homo sapiens, UniProt P08684). Briefly: Inhibition of human recombinant CYP3A4 expressed in baculovirus-infected insect microsomes. The series is classed as ADME, Microsome.
Series [6] in a line: Cmax in Wistar rat at 25 mg/kg, po. The series is classed as ADME, organism-based. Also noted: dose 25 mg/kg, route oral. The settings on record: in vivo.
Series [7] deals with Rattus norvegicus. Put plainly: Reduction of ACTH-induced aldosterone level in Wistar rat plasma at 20 mg/kg, iv administered 16 hrs after ACTH challenge after 0.5 to 3 hrs. Further details: scale not given: the % may be the effect or the level left.
The target of a further series is T3, CYP17 (Homo sapiens, UniProt P05093).
T3 sequence (P05093 whole entry): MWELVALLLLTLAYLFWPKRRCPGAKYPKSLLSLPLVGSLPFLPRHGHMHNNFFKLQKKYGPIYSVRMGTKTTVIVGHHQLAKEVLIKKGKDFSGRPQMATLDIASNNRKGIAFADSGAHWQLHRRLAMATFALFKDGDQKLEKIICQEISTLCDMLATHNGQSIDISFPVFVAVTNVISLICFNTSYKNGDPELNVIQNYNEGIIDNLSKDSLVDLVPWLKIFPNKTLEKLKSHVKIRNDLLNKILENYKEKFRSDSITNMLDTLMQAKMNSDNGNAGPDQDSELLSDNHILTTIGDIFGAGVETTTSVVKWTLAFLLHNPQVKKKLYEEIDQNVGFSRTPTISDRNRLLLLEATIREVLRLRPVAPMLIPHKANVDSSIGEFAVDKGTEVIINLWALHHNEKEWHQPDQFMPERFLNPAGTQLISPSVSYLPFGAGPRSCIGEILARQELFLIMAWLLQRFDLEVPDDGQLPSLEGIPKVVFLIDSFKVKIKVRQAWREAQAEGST
Put plainly: in vitro. The settings on record: human CYP17 expressed in Escherichia coli.

A short description of series [8]: Protein binding in rat plasma at 3 uM after 1 hr. The series is classed as ADME, cell-free. The settings on record: read-out: PPB (converted).
The nature of series [9]: Tmax in Wistar rat at 5 mg/kg, po by cassette dosing. The class given is ADME, organism-based. Also noted: dose 5 mg/kg, route oral. The settings on record: in vivo.
Series [10] in a line: Cmax in Wistar rat at 5 mg/kg, po by cassette dosing. The series is classed as ADME, organism-based. Further details: dose 5 mg/kg, route oral. The note with it: in vivo.
A short description of series [11]: Terminal half life in Wistar rat at 5 mg/kg, po by cassette dosing. The class given is ADME, organism-based. Further details: dose 5 mg/kg, route oral. The settings on record: in vivo, read-out: beta t1/2 (converted).
The nature of series [12]: Protein binding in human plasma at 3 uM after 1 hr. The series is classed as ADME, cell-free. The settings on record: read-out: PPB (converted).
For a further series, the system named is U-937. Briefly: Cytotoxicity against human U937 cells assessed as reduction of survival fraction at >100 uM by fluorimetric alamar blue assay. The class given is cell-based. On the technique in general: Resazurin is reduced to fluorescent resorufin, in cell work by metabolically active cells.
Series [13] can be described thus: AUC (0 to infinity) in Wistar rat at 5 mg/kg, po by cassette dosing. The series is classed as ADME, organism-based. Further details: time infinity, dose 5 mg/kg, route oral. The settings on record: plasma.

The IC50 is the midpoint of a concentration-inhibition curve. A word on the Tmax: it is the time at which the peak concentration occurs. What is called inhibition is the percentage by which the read-out fell short of the control. Broadly, the AUC(0-inf) is the area under the concentration-time curve extrapolated to infinity. In general, Cmax refers to the peak of the concentration-time curve.

Sequence of Cytochrome P450 3A4 (P08684 whole entry): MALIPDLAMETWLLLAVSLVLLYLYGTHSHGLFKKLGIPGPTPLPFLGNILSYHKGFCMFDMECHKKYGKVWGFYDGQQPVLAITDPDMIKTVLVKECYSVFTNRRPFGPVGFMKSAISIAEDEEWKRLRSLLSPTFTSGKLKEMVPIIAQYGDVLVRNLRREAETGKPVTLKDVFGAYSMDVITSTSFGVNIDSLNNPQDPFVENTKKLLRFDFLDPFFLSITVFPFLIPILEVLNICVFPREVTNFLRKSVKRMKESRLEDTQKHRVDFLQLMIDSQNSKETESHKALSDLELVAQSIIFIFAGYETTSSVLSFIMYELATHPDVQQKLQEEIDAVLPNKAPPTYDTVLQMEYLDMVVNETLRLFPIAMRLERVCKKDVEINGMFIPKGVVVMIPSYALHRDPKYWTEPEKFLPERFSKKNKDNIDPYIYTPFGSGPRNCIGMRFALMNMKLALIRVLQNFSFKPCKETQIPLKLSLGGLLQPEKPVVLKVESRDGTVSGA
Sequence of Cytochrome P450 2D6 (P10635 whole entry): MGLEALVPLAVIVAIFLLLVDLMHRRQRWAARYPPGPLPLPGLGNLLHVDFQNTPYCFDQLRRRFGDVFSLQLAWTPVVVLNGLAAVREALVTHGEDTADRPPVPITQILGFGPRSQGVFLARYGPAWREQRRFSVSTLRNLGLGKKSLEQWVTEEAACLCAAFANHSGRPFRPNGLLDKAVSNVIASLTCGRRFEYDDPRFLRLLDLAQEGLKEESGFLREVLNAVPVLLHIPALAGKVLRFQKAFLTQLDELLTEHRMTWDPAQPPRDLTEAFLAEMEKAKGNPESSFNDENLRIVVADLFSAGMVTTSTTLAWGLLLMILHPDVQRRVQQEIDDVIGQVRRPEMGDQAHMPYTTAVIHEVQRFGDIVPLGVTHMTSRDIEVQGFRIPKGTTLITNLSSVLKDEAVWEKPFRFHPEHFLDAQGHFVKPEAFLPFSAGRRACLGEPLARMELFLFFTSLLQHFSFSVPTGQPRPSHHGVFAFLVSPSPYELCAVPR
Description for CYP17: Inhibition of human CYP17 expressed in Escherichia coli at 2.5 uM
Description for Cytochrome P450 1A2: Inhibition of human recombinant CYP1A2 expressed in baculovirus-infected insect microsomes

For `O=C1CCc2cc(-c3cncc4ccccc34)ccc2N1`, the half-inhibitory concentration (IC50) at Cytochrome P450 1A2 was > 150 µM; on Cytochrome P450 2D6 (read-out: IC50), < 50 µM; on Cytochrome P450 3A4, < 50 µM. The Cp in the series with Rattus norvegicus [1] is 90 ng/mL. The Tmax in series [2] is 2 h. Moreover, in series [3], the half-life is 2.9 h. For the same compound, 0.5 µM produced 94% inhibition in series [4]. Besides, the Ratio IC50 in the series listed under Homo sapiens was 187. Besides, the AUC(0-inf) in [5] came out at 1660 ng·h/mL. For the same compound, in series [6], the maximum concentration (Cmax) stood at 134 ng/mL. In the series on Rattus norvegicus [7], the Activity is recorded as 36%. Testing at 2.5 µM against CYP17 gave an inhibition of 22%.

Turning to `O=C1CCc2cc(-c3cccnc3)ccc2C1`, the figures for the fraction unbound at 1 h, 3 µM in series [8] and in [12] were 0.75 and 0.76, respectively. Moreover, the half-inhibitory concentration (IC50) amounted to 1.55 µM on Cytochrome P450 1A2, 171 µM on Cytochrome P450 2D6 (read-out: IC50) and 6.21 µM on Cytochrome P450 3A4. Moreover, in series [9], the Tmax was 4 h. In [4], this compound came in with an inhibition at 0.5 µM of 97%. The Ratio IC50 in the series listed under Homo sapiens came out at 496. Further, the highest concentration (Cmax) in series [10] was found to be 104 ng/mL. For the same compound, the half-life in [11] is 3.5 h. The Activity result in the series on U-937 is listed as “Toxic”. The compound also showed an AUC(0-inf) in series [13] of 727 ng·h/mL. At CYP17, this compound had an inhibition at 2.5 µM of 20%.

In the case of `COc1cncc(-c2ccc3c(c2)CCC(=O)C3)c1`, the IC50 against Cytochrome P450 1A2 was 1.56 µM; at Cytochrome P450 2D6, < 200 µM; at Cytochrome P450 3A4 it was 3.8 µM. For the same compound, in series [9], the time to peak (Tmax) was found to be 4 h. This compound also registered an inhibition at 0.5 µM in series [4] of 94%. Also, in the series listed under Homo sapiens, the Ratio IC50 is 106. The Cmax in [10] stood at 35 ng/mL. Further, the half-life in [11] is 3.9 h. In series [13], the AUC(0-inf) came out at 212 ng·h/mL. At CYP17, this compound returned an inhibition at 2.5 µM of 21%.

For the origin of these results see ChEMBL document CHEMBL1151717, “In vivo active aldosterone synthase inhibitors with improved selectivity: lead optimization providing a series of pyridine substituted 3,4-dihydro-1H-quinolin-2-one derivatives” (J Med Chem, 2008).
